US6623953B1, “Enzymatic composition and method for seasoning wood” (ETS. Robert Stiernon S.A., priority 1998, dated 2003)

Tested on: phenol heterosidase activity of the enzymatic preparation
Assay: Inhibition of the phenol heterosidase activity by phenol compounds
Format: biochemical
Conditions: concentration 1 g/l
Method: The measurement of phenol heterosidase enzymatic activity PeH is based on the release of carboxylic functions which lower the pH of the reaction medium. 9 mg of an aqueous extract of green oak are added, in a test tube, to 9 ml of a 0.1 M NaCl solution, pH 4.5, containing 1% of enzymatic preparation EP. A control tube is prepared under the same conditions, without enzymes. The pH is measured in the two tubes at time 0 (pHc0 for the control and pHe0 for the enzyme) and after 4 hours of incubation at 25° C. (pHc4 and pHe4, respectively). The optimum conditions were established beforehand and there is perfect correlation between the release of glucose and the drop in pH.
The phenol heterosidase activity is calculated from the equation:
PeH=[(pHc0−pHc4)−(pHe0−pHe4)/4]×100 (PeH being expressed in 10^−3 units of pH/ml/h)
In general, all the heteroside substrates are used by the enzymatic activities present. Only the condensed tannins from grape show inhibition of the phenol heterosidase activity.

`O=C1OCC2OC(=O)c3cc(O)c(O)c(O)c3-c3c(O)c(O)c(O)c4c3C(=O)OC(C2OC(=O)c2cc(O)c(O)c(O)c2-c2c1cc(O)c(O)c2O)C1OC(=O)c2c-4c(O)c(O)c(O)c2C1O` (stereo not shown) [vescalagin, Vescalagin] was tested, and the “PeH in presence of phenol compound” value was 100 10^−3 pH/ml/h.
